Data as given in patent US9718828B2 (MERCK SHARP & DOHME CORP., priority 2011, dated 2017).
Structures can show the parent of a compound that is named as a salt. Where two headings read alike, the source gives them in different places.

Molecular target: hBTK (full-length BTK, 6HIS-tag cleaved) (Homo sapiens (Human), UniProt Q06187)
Assay: BTK enzymatic activity, LANCE TR-FRET assay (Assay Method C)
Format: biochemical
Settings: 50 pM hBTK, 25 μM ATP
[1] = LANCE TR-FRET, class 100-1000 is given as ≧100 nM-<1 μM, read-out: IC50 Btk activity values - Assay Method C

Sequence of hBTK (full-length BTK, 6HIS-tag cleaved) (Q06187 whole entry): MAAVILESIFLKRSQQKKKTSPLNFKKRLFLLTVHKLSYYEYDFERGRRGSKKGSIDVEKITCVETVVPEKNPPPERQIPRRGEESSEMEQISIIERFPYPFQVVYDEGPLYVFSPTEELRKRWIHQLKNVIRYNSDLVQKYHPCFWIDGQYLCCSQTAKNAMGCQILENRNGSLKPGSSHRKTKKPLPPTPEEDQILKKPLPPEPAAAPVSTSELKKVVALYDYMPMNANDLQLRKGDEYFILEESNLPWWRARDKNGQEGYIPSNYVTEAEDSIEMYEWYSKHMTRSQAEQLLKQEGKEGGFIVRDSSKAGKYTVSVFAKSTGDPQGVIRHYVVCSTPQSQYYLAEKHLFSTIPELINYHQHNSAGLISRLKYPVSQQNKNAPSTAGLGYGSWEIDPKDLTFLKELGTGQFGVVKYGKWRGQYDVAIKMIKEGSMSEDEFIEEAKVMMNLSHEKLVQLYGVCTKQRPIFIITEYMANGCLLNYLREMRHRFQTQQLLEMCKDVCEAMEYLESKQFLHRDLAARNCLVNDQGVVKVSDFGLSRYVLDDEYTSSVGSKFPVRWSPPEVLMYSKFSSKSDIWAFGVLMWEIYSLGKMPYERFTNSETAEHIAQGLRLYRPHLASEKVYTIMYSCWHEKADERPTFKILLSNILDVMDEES

| Compound | IC50 [1] | IC50 (Table D, Assay Method C (LANCE TR-FRET), read-out: IC50 BTK activity value) |
| --- | --- | --- |
| Nc1ncc(Cl)n2c([C@H]3CN(CCO)CCO3)nc(-c3ccc(C(=O)Nc4cc(C(F)(F)F)ccn4)cc3)c12 [Example 535, 4-{8-amino-5-chloro-3-[(2R)-4-(2-hydroxyethyl)morpholin-2-yl]imidazo[1,5-a]pyrazin-1-yl}-N-[4-(trifluoromethyl)pyridin-2-yl]benzamide, TFA salt] | < 10 nM | – |
| Nc1nccn2c([C@H]3CC[C@@H](CO)N(C(=O)C4CC4)C3)nc(-c3ccc(C(=O)Nc4cc(C(F)(F)F)ccn4)cc3)c12 [Example 419, 4-{8-amino-3-[(3S,6S)-1-(cyclopropylcarbonyl)-6-(hydroxymethyl)piperidin-3-yl]imidazo[1,5-a]pyrazin-1-yl}-N-[4-(trifluoromethyl)pyridin-2-yl]benzamide] | < 10 nM | – |
| CCn1ncc2c1CCC[C@H]2n1nc(-c2ccc(C(=O)Nc3cc(C(F)(F)F)ccn3)cc2)c2c(N)ncnc21 [Example 559, 4-{4-amino-1-[(4R)-1-ethyl-4,5,6,7-tetrahydro-1H-indazol-4-yl]-1H-pyrazolo[3,4-d]pyrimidin-3-yl}-N-[4-(trifluoromethyl)pyridin-2-yl]benzamide, TFA salt] | < 10 nM | – |
| CCN1C[C@H](c2nc(-c3ccc(C(=O)Nc4cc(C(F)(F)F)ccn4)cc3)c3c(N)nccn23)OC[C@@H]1CO [Example 549, 4-{8-amino-3-[(2R,5S)-4-ethyl-5-(hydroxymethyl)morpholin-2-yl]imidazo[1,5-a]pyrazin-1-yl}-N-[4-(trifluoromethyl)pyridin-2-yl]benzamide, TFA salt] | < 10 nM | – |
| COCC(=O)N1CCC[C@@H](c2nc(-c3ccc(C(=O)Nc4cc(C(F)(F)F)ccn4)cc3F)c3c(N)ncc(COC)n23)C1 [Example 452, 4-{8-amino-3-[(3R)-1-(methoxyacetyl)piperidin-3-yl]-5-(methoxymethyl)imidazo[1,5-a]pyrazin-1-yl}-3-fluoro-N-[4-(trifluoromethyl)pyridin-2-yl]benzamide] | < 10 nM | – |
| Cc1cnc(N)c2c(-c3ccc(C(=O)Nc4cc(C(F)(F)F)ccn4)cc3)nc([C@H]3CN(C(=O)[C@H](C)O)CCO3)n12 [Example 543, 4-(8-amino-3-{(2R)-4-[(2S)-2-hydroxypropanoyl]morpholin-2-yl}-5-methylimidazo[1,5-a]pyrazin-1-yl)-N-[4-(trifluoromethyl)pyridin-2-yl]benzamide, TFA salt] | < 10 nM | – |
| CC1(C(=O)N2CCC[C@@H](c3nc(-c4ccc(C(=O)Nc5cc(C6CCC6)ccn5)cc4)c4c(N)nccn34)C2)COC1 [Example 354, 4-(8-amino-3-{(3R)-1-[(3-methyloxetan-3-yl)carbonyl]piperidin-3-yl}imidazo[1,5-a]pyrazin-1-yl)-N-(4-cyclobutylpyridin-2-yl)benzamide] | < 10 nM | – |
| CC1(C(=O)N2CCO[C@@H](c3nc(-c4ccc(C(=O)Nc5cc(C(F)(F)F)ccn5)cc4F)c4c(N)nccn34)C2)COC1 [Example 513, 4-(8-amino-3-{(2R)-4-[(3-methyloxetan-3-yl)carbonyl]morpholin-2-yl}imidazo[1,5-a]pyrazin-1-yl)-3-fluoro-N-[4-(trifluoromethyl)pyridin-2-yl]benzamide, TFA salt] | < 10 nM | – |
| Nc1nccc2c1c(-c1ccc(C(=O)Nc3cc(C(F)(F)F)ccn3)cc1)nn2[C@@H]1CCCN(C(=O)C2CC2)C1 [Example 384, 4-{4-amino-1-[(3R)-1-(cyclopropylcarbonyl)piperidin-3-yl]-1H-pyrazolo[4,3-c]pyridin-3-yl}-N-[4-(trifluoromethyl)pyridin-2-yl]benzamide] | < 10 nM | – |
| CC1(C(=O)N2CCC[C@@H](c3nc(-c4ccc(C(=O)Nc5cc(C#N)ccn5)cc4)c4c(N)ncc(Cl)n34)C2)COC1 [Example 445, 4-(8-amino-5-chloro-3-{(3R)-1-[(3-methyloxetan-3-yl)carbonyl]piperidin-3-yl}imidazo[1,5-a]pyrazin-1-yl)-N-(4-cyanopyridin-2-yl)benzamide] | < 10 nM | – |
| CC(=O)N1C[C@@H](c2nc(-c3ccc(C(=O)Nc4cc(C(F)(F)F)ccn4)cc3)c3c(N)nccn23)CC[C@@H]1C(F)(F)F [Example 427, 4-{3-[(3S,6R)-1-acetyl-6-(trifluoromethyl)piperidin-3-yl]-8-aminoimidazo[1,5-a]pyrazin-1-yl}-N-[4-(trifluoromethyl)pyridin-2-yl]benzamide] | < 10 nM | – |
| C[C@@H](O)C(=O)N1CCO[C@@H](c2nc(-c3ccc(C(=O)Nc4cc(C(F)(F)F)ccn4)cc3)c3c(N)nccn23)C1 [Example 520, 4-(8-amino-3-{(2R)-4-[(2R)-2-hydroxypropanoyl]morpholin-2-yl}imidazo[1,5-a]pyrazin-1-yl)-N-[4-(trifluoromethyl)pyridin-2-yl]benzamide] | < 10 nM | – |
| CC(C)N1CC(C(=O)N2CCC[C@@H](c3nc(-c4ccc(C(=O)Nc5cc(C(F)(F)F)ccn5)cc4)c4c(N)nccn34)C2)C1 [Example 329, 4-{8-amino-3-[(3R)-1-{[1-(1-methylethyl)azetidin-3-yl]carbonyl}piperidin-3-yl]imidazo[1,5-a]pyrazin-1-yl}-N-[4-(trifluoromethyl)pyridin-2-yl]benzamide] | < 10 nM | – |
| CCC(=O)N1CCC[C@@H](c2nc(-c3ccc(C(=O)Nc4cc(C(F)(F)F)ccn4)cc3OC)c3c(N)nccn23)C1 [Example 490, 4-{8-amino-3-[(3R)-1-propanoylpiperidin-3-yl]imidazo[1,5-a]pyrazin-1-yl}-3-methoxy-N-[4-(trifluoromethyl)pyridin-2-yl]benzamide] | < 10 nM | – |
| Cc1cc(NC(=O)c2ccc(-c3nc([C@@H]4CCCN(C(=O)C5(C)COC5)C4)n4ccnc(N)c34)cc2)ncc1F [Example 360, 4-(8-amino-3-{(3R)-1-[(3-methyloxetan-3-yl)carbonyl]piperidin-3-yl}imidazo[1,5-a]pyrazin-1-yl)-N-(5-fluoro-4-methylpyridin-2-yl)benzamide] | < 10 nM | – |
| CS(=O)(=O)CC(=O)N1CCO[C@@H](c2nc(-c3ccc(C(=O)Nc4cc(C(F)(F)F)ccn4)cc3)c3c(N)nccn23)C1 [Example 545, 4-(8-amino-3-{(2R)-4-[(methylsulfonyl)acetyl]morpholin-2-yl}imidazo[1,5-a]pyrazin-1-yl)-N-[4-(trifluoromethyl)pyridin-2-yl]benzamide] | < 10 nM | – |
| C[C@H]1CC[C@@H](c2nc(-c3ccc(C(=O)Nc4cc(C(F)(F)F)ccn4)c(Cl)c3)c3c(N)nccn23)CN1C(=O)C1(C)COC1 [Example 400, 4-(8-amino-3-{(3R,6S)-6-methyl-1-[(3-methyloxetan-3-yl)carbonyl]piperidin-3-yl}imidazo[1,5-a]pyrazin-1-yl)-2-chloro-N-[4-(trifluoromethyl)pyridin-2-yl]benzamide] | < 10 nM | 0.96 nM |
| CC1(CN2CCO[C@@H](c3nc(-c4ccc(C(=O)Nc5cc(C(F)(F)F)ccn5)cc4)c4c(N)nccn34)C2)COC1 [Example 507, 4-(8-amino-3-{(2R)-4-[(3-methyloxetan-3-yl)methyl]morpholin-2-yl}imidazo[1,5-a]pyrazin-1-yl)-N-[4-(trifluoromethyl)pyridin-2-yl]benzamide] | < 10 nM | – |
| Cc1cnc(N)c2c(-c3ccc(C(=O)Nc4cc(C(F)(F)F)ccn4)cc3)nc([C@H]3CN(C(=O)C4(C)COC4)CCO3)n12 [Example 506, 4-(8-amino-5-methyl-3-{(2R)-4-[(3-methyloxetan-3-yl)carbonyl]morpholin-2-yl}imidazo[1,5-a]pyrazin-1-yl)-N-[4-(trifluoromethyl)pyridin-2-yl]benzamide] | 10 to 100 nM | – |
| C[C@H](O)c1cnc(N)c2c(-c3ccc(C(=O)Nc4cc(C(F)(F)F)ccn4)cc3)nc([C@@H]3CCCN(C(=O)C4(C)COC4)C3)n12 [Example 466, 4-(8-amino-5-[(1S)-1-hydroxyethyl]-3-{(3R)-1-[(3-methyloxetan-3-yl)carbonyl]piperidin-3-yl}imidazo[1,5-a]pyrazin-1-yl)-N-[4-(trifluoromethyl)pyridin-2-yl]benzamide] | < 10 nM | – |
| CCC(=O)N1CCC[C@@H](c2nc(-c3ccc(C(=O)Nc4cc(OC)ccn4)cc3)c3c(N)nccn23)C1 [Example 372, 4-{8-amino-3-[(3R)-1-propanoylpiperidin-3-yl]imidazo[1,5-a]pyrazin-1-yl}-N-(4-methoxypyridin-2-yl)benzamide] | < 10 nM | – |
| N#CCN1CCO[C@@H](c2nc(-c3ccc(C(=O)Nc4cc(C(F)(F)F)ccn4)cc3)c3c(N)ncc(Cl)n23)C1 [Example 533, 4-{8-amino-5-chloro-3-[(2R)-4-(cyanomethyl)morpholin-2-yl]imidazo[1,5-a]pyrazin-1-yl}-N-[4-(trifluoromethyl)pyridin-2-yl]benzamide] | < 10 nM | – |
| CCOCCN1CCO[C@@H](c2nc(-c3ccc(C(=O)Nc4cc(C(F)(F)F)ccn4)cc3)c3c(N)ncc(C)n23)C1 [Example 541, 4-{8-amino-3-[(2R)-4-(2-ethoxyethyl)morpholin-2-yl]-5-methylimidazo[1,5-a]pyrazin-1-yl}-N-[4-(trifluoromethyl)pyridin-2-yl]benzamide, TFA salt] | < 10 nM | – |
| COc1ccnc(NC(=O)c2ccc(-c3nc([C@@H]4CCCN(C(=O)C5(C)COC5)C4)n4c(C)cnc(N)c34)cc2)c1 [Example 459, 4-(8-amino-5-methyl-3-{(3R)-1-[(3-methyloxetan-3-yl)carbonyl]piperidin-3-yl}imidazo[1,5-a]pyrazin-1-yl)-N-(4-methoxypyridin-2-yl)benzamide] | < 10 nM | – |
| COCCN1CCO[C@@H](c2nc(-c3ccc(C(=O)Nc4cc(C(F)(F)F)ccn4)cc3)c3c(N)ncc(C)n23)C1 [Example 539, 4-{8-amino-3-[(2R)-4-(2-methoxyethyl)morpholin-2-yl]-5-methylimidazo[1,5-a]pyrazin-1-yl}-N-[4-(trifluoromethyl)pyridin-2-yl]benzamide, TFA salt] | < 10 nM | – |
| CN1C[C@@H](c2nc(-c3ccc(C(=O)Nc4cc(C(F)(F)F)ccn4)cc3)c3c(N)nccn23)CC[C@H]1C(F)(F)F [Example 414, 4-{8-amino-3-[(3S,6S)-1-methyl-6-(trifluoromethyl)piperidin-3-yl]imidazo[1,5-a]pyrazin-1-yl}-N-[4-(trifluoromethyl)pyridin-2-yl]benzamide] | < 10 nM | – |
